{"source": "patent US20210299070A1", "about": "“METHODS OF TREATING CREATINE T[…]” (Jnana Therapeutics, Inc., priority 2018, published 2021)", "origin": "cited, not measured here", "key": {"[1]": {"conditions": "patients with CID (creatine transporter deficiency); oral supplements"}, "[2]": {"conditions": "patients with GAMT or AGAT deficiency; oral supplements"}}}
{"compound": "CN(CC(=O)O)C(=N)N.O", "note": "[creatine monohydrate]", "values": [{"measurement": "response to treatment", "setting": "[1]", "value": "did not respond to treatment"}, {"measurement": "clinical symptoms", "setting": "[2]", "value": "clinical symptoms improved"}]}
